According to the OligoGym collection:
After the bases stand the sugars from the 5' end (letter, count) and the backbone: PS all phosphorothioate, else s phosphorothioate and o phosphodiester by linkage. Methylation of C is not given here. l = locked nucleic acid (LNA); d = 2'-deoxy (DNA)

Target: SNHG14
Conditions: ASO
[1] = Mouse Primary Neuronal Cell, 0.005 µM

Sequence	target mRNA inhibition (Human Neuronal Cell, 7.5 µM) [%]	target mRNA inhibition (Human Neuronal Cell, 0.2 µM) [%]	target mRNA inhibition (Human Neuronal Cell, 1 µM) [%]	also measured
GCAACATTATTAACCACCT (sugars lddldldddddddddddll, PS)	60			
TTATTTATACACCATC (sugars l2 d10 l4, PS)		78	74	
AGCAACATTATTAACCACC (sugars l2 d1 l2 d12 l2, PS)	63			
TTATTTCCATTTATTTTCA (sugars ldlldddddddddlddlll, PS)	68			
TACATCTCATACTTGC (sugars l3 d10 l3, PS)		4	-2	target mRNA inhibition (Human Neuronal Cell, 5 µM): 12%; target mRNA inhibition [1]: 97.4%
TTGATTCAATTCCCTTA (sugars l2 d11 l1 d1 l2, PS)	60			
CTCCTTTATGACTCCA (sugars l3 d11 l2, PS)		50	56	
TACTCTGCAATACACCA (sugars l1 d3 l1 d10 l2, PS)	54			
GAAAATCTCAACTACCATT (sugars l4 d10 l2 d1 l2, PS)	60			
AAGATCATTCTCAACAAT (sugars lllldlddddddldllll, PS)	-6			
CTTTACTCTGCAATACA (sugars l2 d11 l4, PS)		49	59	
ACTCTCACTGTAACTT (sugars l3 d10 l3, PS)		36	44	
AAATCTCAACTACCATTTTT (sugars ldddldlddddddldlddll, PS)	41			
TCCAACATAGATCCTCT (sugars l2 d11 l4, PS)		45	55	
ATCATTCTCAACAATTAAA (sugars l4 d1 l1 d8 l5, PS)	49			
GATCATTCTCAACAATTAA (sugars lldlllddddddlllddll, PS)	-2			
CAACATTATTAACCACCTT (sugars l3 d1 l1 d11 l3, PS)	61			
AAATTATTTATACACCATCA (sugars ldllllddddddddldldll, PS)	70			
TTTTATACCTTTCTTTAACC (sugars ldddlddddddddlddddll, PS)	-9			
GCTCCCAAACAACTAA (sugars l2 d12 l2, PS)		36	72	
AGCTCCATATTTAAAT (sugars l4 d10 l2, PS)		10	-9	
GTTTCCATCTACTATTAAT (sugars l1 d2 l2 d12 l2, PS)	62			
ATCTTTCCATTTATTTCC (sugars l3 d12 l3, PS)		52	56	

Sequence	target mRNA inhibition (Human Neuronal Cell, 7.5 µM) [%]	target mRNA inhibition (Human Neuronal Cell, 0.2 µM) [%]	target mRNA inhibition (Human Neuronal Cell, 1 µM) [%]	also measured
CTCAAAGATCATTCTCA (sugars ldldldddddddlldll, PS)	65			
TTTATCAATATCTTCTCAC (sugars lldlllddddddlddddll, PS)	65			
CCACCTTAAGTAACAT (sugars l3 d10 l3, PS)		30	43	
GCACATTCTTTCTATACC (sugars l1 d15 l2, PS)	25			
GTTCTACTATACTTTCCT (sugars l2 d1 l1 d12 l2, PS)	60			
TACTCTGCAATACACC (sugars l1 d2 l2 d9 l2, PS)	65			
TTGATTCAATTCCCTTA (sugars l2 d10 l1 d1 l3, PS)	68			
CTTTCCATTTATTTCCATTT (sugars ldldddldddddddddldll, PS)	54			
AGCAACATTATTAACCAC (sugars l2 d1 l1 d9 l5, PS)	61			
CCTAAGCTCCATATTT (sugars l4 d10 l2, PS)		39	45	
TACACAAATACTTAAATCA (sugars l4 d13 l2, PS)		7	19	
ATAATCCCATACATCTA (sugars l3 d11 l3, PS)		60	69	
CCCTCAAAGTAATTTC (sugars l4 d10 l2, PS)		21	20	
TCATCCCTCCAAGAAA (sugars l2 d12 l2, PS)		-16	-28	target mRNA inhibition (Human Neuronal Cell, 5 µM): -48%
ACCTACATCTCATACTT (sugars l2 d11 l4, PS)				target mRNA inhibition [1]: 94.2%
TTAGTATACCCTTTAT (sugars l3 d10 l3, PS)		28	20	
TACATATTGTACTTCT (sugars l4 d10 l2, PS)		18	23	
TTTATTTCCATTTATTTTCA (sugars lldldlddddddddldldll, PS)	63			
TATACCTTTCTTTAACCCTT (sugars lddldlddddddddddldll, PS)	62			
CTTTAATGCTTCTAAC (sugars l2 d10 l4, PS)		-3	26	
AAATTTCTCAACCTAAATTT (sugars l2 d14 l4, PS)		-9	2	
CTGTATACACCATCCCA (sugars l1 d10 l1 d3 l2, PS)	54			
